Laboratory results as given in patent US11440932B2, “Surfactant compounds-clips for extraction and stabilization in solution of membrane proteins” (CENTRE NATIONAL DE LA RECHERCHE SCIENTIFIQUE, priority 2017, dated 2022).

Each compound was assayed against T1, BmrA (Bacillus subtilis, UniProt O06967) (assay: ATPase activity of BmrA after addition of detergents). Conditions: at extracting concentrations; relative to protein without compound.
T1 construct: His tag; made in house; host or cells: E. coli C41(DE3)
Type: biochemical, bacterial; produced in E. coli C41 DE3
Experimental: FIG. 7 depicts the effect of the detergents of the invention on the functionality of BmrA (ATPase activity, %). The membrane fraction enriched in BmrA (˜25%) diluted to 2 g/l has the compounds added to it at the concentrations (mM) indicated (panel A, from top to bottom: 3.7e 10.7 mM, 3.7e 8.6 mM, 3.7e 6.4 mM, 3.7e 4.3 mM, 3.7e 2.2 mM, 3.7e 1.1 mM, 3.7d 4 mM, 3.7d 3 mM, 3.7d 2 mM, 3.7d 1 mM, 3.7d 0.8 mM, 3.7d 0.6 mM, 3.7d 0.05 mM, 3.7d 0.03 mM, 3.7d 0.02 mM, 3.7c 13 mM, 3.7c 10.4 mM, 3.7c 10 mM, 3.7b 1.5 mM, 3.7b 0.7 mM, 3.7b 0.5 mM, 2.3gNa2 20.5 mM, 2.3gK2 19.3 mM, 2.3f 21.1 mM, 2.3e 22 mM, 2.3d 23.2 mM, 2.3a 3.2 mM, 1.5a 22 mM, DDM 20 mM, DDM 2 mM, DDM 10 mM, DOM 2 mM, DDM 1 mM, LMNG 10 mM, LMNG 1 mM, LMNG 0.1 mM, LMNG 0.01 mM, FA3 27 mM, FA3 9 mM, FA3 2 mM, FA3 1 mM, TX100 16 mM; panel B from top to bottom: compounds of the invention 5.3d 3.2 mM, 5.3c 3.3 mM, 5.3b 11.7 mM, 5.3b 2.9 mM, 5.3a 3 mM, 4.6c 14.6 mM, 4.6b 15.2 mM, 4.5c 18.6 mM, 4.5b 19.6 mM, 3.9a 8 mM, 3.9a 0.51 mM, 3.9a 0.31 mM, 3.9a 0.11 mM, 3.7l 12.01 mM, 3.7l 6.01 mM, 3.7l 3 mM, 3.7l 1 mM, 3.7k 10 mM, 3.7k 3 mM, 3.7j 3 mM, 3.7j 2 mM, 3.7j 1 mM, 3.7j 0.6 mM, 3.7j 0.03 mM, 3.7j 0.02 mM, 3.7j 1 mM, 3.7i 0.3 mM, 3.7h 3 mM, 3.7h 2 mM, 3.7h 1 mM, 3.7h 0.6 mM, 3.7h 0.58 mM, 3.7h 0.5 mM, 3.7h 0.35 mM, 3.7h 0.1 mM, 3.7h 0.5 mM, 3.7h 0.35 mM, 3.7h 0.1 mM, 3.7h 0.05 mM, 3.7h 0.03 mM, 3.7h 0.02 mM, 3.7g 12.5 mM, 3.7g 9 mM, 3.7g 7.5 mM, 3.7g 5 mM, 3.7g 3 mM, 3.7g 1 mM, 3.7f 3.2 mM, 3.7f 2 mM, 3.7f 1 mM, 3.7f 0.061 mM, 3.7f 0.031 mM, 3.7f 0.015 mM). After incubation for 2 h at 4° C., the ATPase activity is measured. The solutions are subsequently centrifuged for 1 h at 4° C., 100 000×g, and the supernatants deposited on 10% SDS-PAGE (cf. FIG. 8). The gray and black histograms correspond to the concentrations at which BmrA is partially (gray) or entirely (black) extracted, according to these SDS-PAGE. The ATPase activity is in % relative to that of the protein without compound, 0.7 μmol ATP hydrolyzed/min/mg of proteins.
The molecules of the invention which extract BmrA in the previous example were tested at different sub-solubilizing and solubilizing concentrations, to evaluate their impact on the native and functional state of the protein. The latter is monitored by the hydrolysis of ATP which is carried out by the protein during the transport cycle, coupled with translocation of the solute. As reported previously (Matar-Merheb, R. et al. ([11])), the ATPase activity of BmrA is a highly sensitive marker of the state of the protein, the latter being particularly sensitive to the detergents used during the extraction step, where said detergents replace the lipids on contact with the membrane protein.
Procedure. BmrA produced and enriched in the plasma membrane of E. coli C41 DE3 is prepared as described previously (Matar-Merheb, R. et al. ([11])). The membranes are diluted at 2 g/l in a 20 mM Tris-HCl buffer, pH 8.0, 100 mM NaCl, 15% glycerol, with protease inhibitors (Roche) added thereto at an amount of one tablet/100 ml. The mixture (T) is incubated for 2 h at 4° C. and the ATPase activity is measured using the coupled-enzyme system, separating off the vanadate-insensitive activity from the total activity, Centeno, F. et al. Expression of the sarcoplasmic reticulum Ca^2+-ATPase in yeast. FEBS Lett 354, 117-122 (1994) ([25])). The solutions are subsequently centrifuged for 1 h at 4° C. at 100 000×g in order to separate the extracted fraction (supernatant, S) from that which is not extracted (pellet). The supernatants are deposited on 10% SDS-PAGE and stained with Coomassie blue after migration (FIG. 8). DDM, LMNG (Chae, P. S. et al. ([6])), TritonX100 and FA3 (Lee, S. C. et al. (2013) ([9])) are tested as reference detergents. The DDM and LMNG originate from Anatrace, the Triton X100 originates from Sigma-Aldrich and the FA3 from Avanti-Polars.

T1 sequence (O06967 whole entry): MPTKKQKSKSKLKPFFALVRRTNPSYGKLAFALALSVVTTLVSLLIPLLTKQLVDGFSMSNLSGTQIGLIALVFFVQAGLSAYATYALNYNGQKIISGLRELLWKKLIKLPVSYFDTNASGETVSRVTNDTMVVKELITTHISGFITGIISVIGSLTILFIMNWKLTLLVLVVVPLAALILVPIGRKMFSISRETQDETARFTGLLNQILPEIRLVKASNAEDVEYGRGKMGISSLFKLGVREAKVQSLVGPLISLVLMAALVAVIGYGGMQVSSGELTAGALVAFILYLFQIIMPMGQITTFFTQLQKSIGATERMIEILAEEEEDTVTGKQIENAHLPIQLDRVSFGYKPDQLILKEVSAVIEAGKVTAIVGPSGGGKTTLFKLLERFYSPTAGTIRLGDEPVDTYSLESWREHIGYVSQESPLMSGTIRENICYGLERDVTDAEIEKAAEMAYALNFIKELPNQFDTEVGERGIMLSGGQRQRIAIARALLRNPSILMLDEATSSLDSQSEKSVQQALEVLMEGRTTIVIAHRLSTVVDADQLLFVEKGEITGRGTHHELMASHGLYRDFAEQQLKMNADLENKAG

Compound | change of the ATPase activity of BmrA on extraction
CCCCCCCCCCCCCC(=O)N[C@@H](COCc1cn(CCO[C@@H]2OC(CO)[C@@H](O)C(O)C2O)nn1)C(=O)N[C@H](CCC(=O)O)C(=O)O (stereo partly drawn) [Compound 3.7c] | 1.5 ×
CCCCCCCCCCCCCC(=O)N[C@@H](COCc1cn(CCOCCOCCOCCOCCOCCOC)nn1)C(=O)N[C@H](CCC(=O)O)C(=O)O [Compound 3.7g] | 1.5 ×
CCCCCCCCCCCCCC(=O)N[C@@H](COCc1cn(CCO[C@@H]2OC(CO)[C@@H](O[C@H]3OC(CO)[C@@H](O)C(O)C3O)C(O)C2O)nn1)C(=O)N[C@H](CCC(=O)O)C(=O)O (stereo partly drawn) [Compound 3.7e] | 2 ×
CCCCCCCCCCCCCC(=O)N[C@@H](COCc1cn(CCO[C@@H]2OC(CO)[C@@H](O)C(O)C2O)nn1)C(=O)N[C@@H](CCC(=O)O)C(=O)NCC(=O)O (stereo partly drawn) [Compound 3.7l] | maintaining
CCCCCCCCCCCC(=O)N[C@@H](COCc1cn(CCO[C@@H]2OC(CO)[C@@H](O)C(O)C2O)nn1)C(=O)N[C@H](CCC(=O)O)C(=O)O (stereo partly drawn) [Compound 3.7b] | 1.5 ×
CCCCCCCCCCCCC(CCCCCCCCCCCC)C(=O)N[C@@H](COCc1cn(CCO[C@@H]2OC(CO)[C@@H](O)C(O)C2O)nn1)C(=O)N[C@H](CCC(=O)O)C(=O)O (stereo partly drawn) [Compound 3.7j] | maintaining
